The target in this experiment is T1, FSH receptor (Homo sapiens, UniProt P23945).
T1 construct: expressed in transfected cells; host or cells: CHO (Chinese Hamster Ovary) cells, stably transfected, carrying a cAMP response element-luciferase reporter
T1 sequence (P23945 18-695): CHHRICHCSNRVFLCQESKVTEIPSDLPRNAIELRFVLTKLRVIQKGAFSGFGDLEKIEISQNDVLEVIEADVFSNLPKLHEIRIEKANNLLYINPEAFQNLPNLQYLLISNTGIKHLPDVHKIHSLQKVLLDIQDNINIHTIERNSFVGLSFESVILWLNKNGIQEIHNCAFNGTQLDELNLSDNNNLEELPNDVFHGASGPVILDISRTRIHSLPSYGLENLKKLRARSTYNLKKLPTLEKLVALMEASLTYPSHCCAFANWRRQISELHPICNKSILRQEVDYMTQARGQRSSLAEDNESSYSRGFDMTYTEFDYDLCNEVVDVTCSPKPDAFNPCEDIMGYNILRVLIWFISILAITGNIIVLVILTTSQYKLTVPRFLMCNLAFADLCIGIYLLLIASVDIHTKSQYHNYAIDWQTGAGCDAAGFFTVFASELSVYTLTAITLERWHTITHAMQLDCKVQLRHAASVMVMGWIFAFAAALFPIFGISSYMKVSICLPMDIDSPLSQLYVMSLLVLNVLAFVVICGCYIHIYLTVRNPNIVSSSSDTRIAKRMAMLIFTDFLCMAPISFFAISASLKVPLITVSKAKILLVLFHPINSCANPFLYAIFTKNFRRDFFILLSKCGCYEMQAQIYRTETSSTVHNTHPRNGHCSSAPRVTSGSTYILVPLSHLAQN
Kind of experiment: FSH assay: cAMP response element luciferase reporter in CHO cells expressing recombinant FSH receptor. The format is cell-based. Particulars: agonist activity; CHO cells stably transfected with recombinant FSH receptor; luciferase luminescence; log-dose-response curves; incubation 37° C. for 3 hrs 30 min; read-out: ED50 (the source's name). How it is done:
Compounds of the invention were tested in the following assay.
All compounds of the invention were stored in 96-well deepwell plates in DMSO at a nominal concentration of 10 μM. Compounds of the invention were screened for agonist activity at the FSH receptor using the recombinant FSH receptor stably transfected and expressed in Chinese Hamster Ovary Cells (CHO cells) essentially as described in the work by Kelton, et al. Molecular and Cellular Endocrinology, 1992, 89, 141-151). […] Thus an agonist at the FSH receptor increases cAMP in the cell which results in activation of the CREB (cAMP) response element binding protein). The substrate for the enzyme (Packard Instrument Company 800 Research Parkway, Meriden, Conn. 06450, USA) was added to the cells after appropriate incubation with the compounds or FSH and the amount of luciferase expressed was measured by quantitating the luminescence produced by the enzyme using a TopCount scintillation/luminescence counter running in single photon counting mode. A compound which acts as an agonist at the receptor should produce light from the treated cells in proportion to its concentration within the incubation. Luminescence should be saturable at high concentrations of the compound.
The compounds of the invention, in deepwell plates (Master plates) as indicated above were loaded on the robotic deck along with the appropriate number of assay plates and daughter plates. A 10 μl aliquot from each master plate was transferred to the corresponding daughter plate and 90 μl of DME/F12 was added and mixed within each well. 20 μl was then removed from the daughter plate and dispensed into the assay plate. After addition of an aliquot of FSH (equivalent to an EC100 response for this hormone to each of three wells on the plate, 80 μl of media (DME/F 12±2% serum) and 100 μl aliquot of cells (4×10^5/ml in the same media) were added and the plate incubated at 37° C. for 3 hrs 30 min. At this time the plate was removed from the incubator and media in each well was aspirated and the cells adhering to the bottom of the plate washed with 300 μl PBS containing 1 mM Ca^2+ and 1 mM Mg^2+. The PBS was aspirated and 100 μl PBS added to each well. 100 μl of Lucite (prepared as described by the manufacturer) was added to each well and the plate was shaken gently for 40 seconds prior to placement in the TopCount plate reader. After allowing 3.5 minutes for the plate to dark-adapt within the machine, the amount of luminescence generated was quantitated using Single Photon Counting mode. The data was transmitted electronically from the TopCount to the robot processing computer terminal and was renamed with an ID corresponding to the original master plate ID. […] LDR (log-dose-response) curves were generated for these compounds in CHO cells containing the FSH receptor and these curves were also compared with those in either cells expressing a different Gs linked receptor or in cells lacking any transfected receptor.
With `CCCCCCCN1CCN(S(=O)(=O)c2cccs2)C(C(=O)Nc2ccc3[nH]c4c(c3c2)CCNC4=O)C1` (stereo not drawn) [4-heptyl-1-(thiophene-2-sulfonyl)-piperazine-2-carboxylic acid (1-oxo-2,3,4,9-tetrahydro-1H-beta-carbolin-6-yl)amide], the EC50 turned out to be 1200 nM. For the compound `CCCCCCN1CCN(S(=O)(=O)CCCC)[C@H](C(=O)Nc2ccc3c(c2)nc(-c2cccnc2)n3CC)C1` [1-(butane-1-sulfonyl)-4-hexyl-piperazine-2-carboxylic acid (1-ethyl-2-pyridin-3-yl-1H-benzoimidazol-5-yl)amide], the EC50 was 170 nM.

`CCCCCCN1CCN(S(=O)(=O)c2cccs2)[C@H](C(=O)Nc2ccc3c(c2)nc(-c2ccncc2)n3CC)C1` [4-hexyl-1-(thiophene-2-sulfonyl)-piperazine-2-carboxylic acid (1-ethyl-2-pyridin-4-yl-1H-benzoimidazol-5-yl)amide]: the EC50 came out at 111 nM. Next, `CCn1c2ccccc2c2cc(NC(=O)[C@@H]3CN(C(=O)NCCc4c[nH]cn4)CCN3S(=O)(=O)c3cccs3)ccc21` [4-(thiophene-2-sulfonyl)-piperazine-1,3-dicarboxylic acid 3-[(9-ethyl-9H-carbazol-3-yl)-amide] 1-{[2-(1H-imidazol-4-yl)-ethyl]-amide}]: 6250 nM; `CCOC(=O)CNC(=O)N1CCN(S(=O)(=O)c2cccs2)[C@H](C(=O)Nc2ccc3c(c2)c2ccccc2n3CC)C1` [{[3-(9-ethyl-9H-carbazol-3-ylcarbamoyl)-4-(thiophene-2-sulfonyl)-piperazine-1-carbonyl]-amino}acetic acid ethyl ester]: 408 nM; `CCCCCCN1CCN(S(=O)(=O)c2cccs2)[C@H](C(=O)Nc2ccc3[nH]c4c(c3c2)CCNC4=O)C1` [4-hexyl-1-(thiophene-2-sulfonyl)-piperazine-2-carboxylic acid (1-oxo-2,3,4,9-tetrahydro-1H-beta-carbolin-6-yl)-amide]: 978 nM.

Take `CCCCCCN1CCN(S(=O)(=O)c2cccs2)[C@H](C(=O)Nc2ccc3c(c2)nc(-c2cccnc2)n3CC)C1` [4-hexyl-1-(thiophene-2-sulfonyl)-piperazine-2-carboxylic acid (1-ethyl-2-pyridinyl-3-yl-1H-benzoimidazole-5-yl)-amide)]: the EC50 was 40 nM.

In the case of `CCn1c2ccccc2c2cc(NC(=O)[C@@H]3CN(C(=O)NCCOC)CCN3S(=O)(=O)c3cccs3)ccc21` [4-(thiophene-2-sulfonyl)-piperazine-1,3-dicarboxylic acid 3-[(9-ethyl-9H-carbazol-3-yl)-amide]1-{(2-methoxy-ethyl)-amide]], the EC50 is 1610 nM.

In the case of `CCn1c2ccccc2c2cc(NC(=O)[C@@H]3CN(C(=O)NCCCn4ccnc4)CCN3S(=O)(=O)c3cccs3)ccc21` [4-(thiophene-2-sulfonyl)-piperazine-1,3-dicarboxylic acid 3-[(9-ethyl-9H-carbazol-3-yl)-amide]1-[(3-imidazol-1-yl-propyl)-amide])], the EC50 stood at 6470 nM.

`CCNC(=O)N1CCN(S(=O)(=O)c2cccs2)[C@H](C(=O)Nc2ccc3c(c2)c2ccccc2n3CC)C1` [4-(thiophene-2-sulfonyl)-piperazine-1,3-dicarboxylic acid 1-ethylamide 3-[(9-ethyl-9H-carbazol-3-yl)amide]]: the EC50 was 877 nM. Turning to `CCCCCCCN1CCN(S(=O)(=O)c2cccs2)[C@H](C(=O)Nc2ccc3c(c2)nc(-c2ccncc2)n3CC)C1` [4-heptyl-1-(thiophene-2-sulfonyl)-piperazine-2-carboxylic acid (1-ethyl-2-pyridin-4-yl-1H-benzoimidazol-5-yl)amide], the EC50 is 53 nM. Take `CCCCC(=O)N1CCN(S(=O)(=O)c2cccs2)[C@H](C(=O)Nc2ccc3c(c2)c2ccccc2n3CC)C1` [4-pentanoyl-1-(thiophene-2-sulfonyl)-piperazine-2-carboxylic acid (9-ethyl-9H-carbazol-3-yl) amide]: the EC50 amounted to 402 nM. For the compound `CCc1cocc1CN1CCN(S(=O)(=O)c2cccs2)[C@H](C(=O)Nc2ccc3c(c2)c2ccccc2n3CC)C1` [4-(4-ethyl-furan-3-ylmethyl)-1-(thiophene-2-sulfonyl)-piperazine-2-carboxylic acid (9-ethyl-9H-carbazol-3-yl)-amide], the EC50 amounted to 1600 nM. With `CCn1c2ccccc2c2cc(NC(=O)[C@@H]3CN(CCCSC)CCN3S(=O)(=O)c3cccs3)ccc21` [4-(3-methylsulfanyl-propyl)-1-(thiophene-2-sulfonyl)-piperazine-2-carboxylic acid (9-ethyl-9H-carbazol-3-yl)-amide], the EC50 turned out to be 1700 nM. Regarding `CCCCCNC(=O)N1CCN(S(=O)(=O)N(C)C)[C@H](C(=O)Nc2ccc3c(c2)c2ccccc2n3CC)C1` [4-dimethylsulfamoyl-piperazine-1,3-dicarboxylic acid 3-[(9-ethyl-9H-carbazol-3-yl)-amide]1-pentylamide], the EC50 was 403 nM. For `CCCCCN1CCN(S(=O)(=O)c2cccs2)[C@H](C(=O)Nc2ccc3c(c2)nc(-c2cccnc2)n3CC)C1` [4-pentyl-1-thiophene-2-sulfonyl)-piperazine-2-carboxylic acid (1-ethyl-2-pyridin-3-yl-1H-benzoimidazol-5-yl)amide], the EC50 was determined as 150 nM. Regarding `CCCCCCN1CCN(S(=O)(=O)N(C)C)C(C(=O)Nc2ccc3c(c2)nc(-c2cccnc2)n3CC)C1` (stereo not shown) [1-dimethylsulfamoyl-4-hexyl-piperazine-2-carboxylic acid (1-ethyl-2-pyridin-3-yl-1H-benzoimidazol-5-yl) amide], the EC50 was found to be 242 nM.

With `CCn1c(-c2ccncc2)nc2cc(NC(=O)[C@@H]3CN(CCCSC)CCN3S(=O)(=O)c3cccs3)ccc21` [4-(3-methylsulfanyl-propyl)-1-(thiophene-2-sulfonyl)-piperazine-2-carboxylic acid (1-ethyl-2-pyridin-4-yl-1H-benzoimidazol-5-yl)amide], the EC50 came out at 14000 nM. With `CCCCCCCN1CCN(S(=O)(=O)c2cccs2)[C@H](C(=O)Nc2ccc3c(c2)nc(-c2cccnc2)n3CC)C1` [4-heptyl-1-(thiophene-2-sulfonyl)-piperazine-2-carboxylic acid (1-ethyl-2-pyridin-3-yl-1H-benzoimidazol-5-yl)-amide] the figure was 94 nM; with `CCCCCCN1CCN(S(=O)(=O)c2ccccc2F)[C@H](C(=O)Nc2ccc3c(c2)nc(-c2cccnc2)n3CC)C1` [1-(2-fluoro-benzenesulfonyl)-4-hexyl-piperazine-2-carboxylic acid (1-ethyl-2-pyridin-3-yl-1H-benzoimidazol-5-yl)amide], 74 nM; with `CCCCCCN1CCN(S(=O)(=O)c2ccccc2)[C@H](C(=O)Nc2ccc3c(c2)nc(-c2cccnc2)n3CC)C1` [1-benzenesulfonyl-4-hexyl-piperazine-2-carboxylic acid (1-ethyl-2-pyridin-3-yl-1H-benzoimidazol-5-yl)amide], 150 nM. Take `CCCCCCN1CCN(S(=O)(=O)c2cccs2)[C@H](C(=O)Nc2ccc3c(c2)c2ccccc2n3CC)C1` [4-hexyl-1-(thiophene-2-sulfonyl)-piperazine-2-carboxylic acid (9-ethyl-9H-carbazol-3-yl) amide]: the EC50 was 380 nM.

For the origin of these results see patent publication US7754722B2, “Piperazine derivatives and methods of use” (Merck Serono SA, priority 2002, dated 2010).
